Reference: US10947499B2, “Selection of stem cell clones with defined differentiation capabilities” (Research Development Foundation, priority 2009, dated 2021)

Tests used:
[1] = tested on: Rho-associated kinase (ROCK); settings: cited from earlier work
[2] = tested on: human ES cells; assay: Seeding of individualized human ES cells in 96-well plates; type: cell-based; settings: similar to HA-100 but at 10-fold lower concentration

**Q.** With `Cc1cncc2cccc(S(=O)(=O)N3CCCNC[C@@H]3C)c12` [Clone H-1152, (S)-(+)-2-Methyl-1-[(4-methyl-5-isoquinolinyl)sulfonyl]homopiperazine] as the molecule, how does the “potency relative to HA-100” value [1] read?
**A.** approximately ten-fold

**Q.** And the “seeding of individualized human ES cells” value [2]?
**A.** very efficient seeding
